“And” between values parts separate entries of the source, which are not always exact repeats. Equal values may be shown once.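 A five-concentration, 48-hour dose response in 96-well plates underlies each endpoint, interpolated linearly between surrounding concentrations. The concentration for 50% growth inhibition is given as GI50. The concentration for full growth arrest is given as TGI.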
Tests used:
Experiment in all cases: NCI anticancer screen, dose series, 48 h
NCI-H460 lung = test system: NCI-H460 lung
NCI/ADR-RES ovarian = test system: NCI/ADR-RES ovarian
SK-MEL-2 melanoma = test system: SK-MEL-2 melanoma
LOX IMVI melanoma = test system: LOX IMVI melanoma
OVCAR-8 ovarian = test system: OVCAR-8 ovarian
RPMI-8226 leukemia = test system: RPMI-8226 leukemia
CCRF-CEM leukemia = test system: CCRF-CEM leukemia
CAKI-1 renal = test system: CAKI-1 renal
TK-10 renal = test system: TK-10 renal
M14 melanoma = test system: M14 melanoma

Row | SMILES | GI50 (NCI-H460 lung) [µM] | TGI (NCI-H460 lung) | GI50 (NCI/ADR-RES ovarian) [µM] | TGI (NCI/ADR-RES ovarian) [µM] | GI50 (SK-MEL-2 melanoma) [µM] | TGI (SK-MEL-2 melanoma) | GI50 (LOX IMVI melanoma) [nM] | TGI (LOX IMVI melanoma) [µM] | GI50 (OVCAR-8 ovarian) [nM] | TGI (OVCAR-8 ovarian) | GI50 (RPMI-8226 leukemia) [nM] | TGI (RPMI-8226 leukemia) | GI50 (CCRF-CEM leukemia) [nM] | TGI (CCRF-CEM leukemia) | GI50 (CAKI-1 renal) [nM] | TGI (CAKI-1 renal) | GI50 (TK-10 renal) [nM] | TGI (TK-10 renal) | GI50 (M14 melanoma) [nM] | TGI (M14 melanoma)
1 | COc1cc2nc3sc(C(=O)Nc4ccc(C(=O)OC(C)C)cc4)c(C(=O)Nc4ccc(Cl)cc4C)n3c(=O)c2cc1OC | 3.05 | > 100 µM | 12.4 | > 100 | > 100 | > 100 µM | 11100 | 34.4 | 12600 | > 100 µM | 16000 | 78.6 µM | 4660 | 30.2 µM | 26100 | > 100 µM | 2450 | 12.7 µM | – | –
2 | C[n+]1c(/C=C\c2ccc(Cl)cc2)ccc2ccccc21 | 32.7 | > 100 µM | > 100 | > 100 | 21 | 50.3 µM | 37400 | > 100 | 6820 | 91.1 µM | 14400 | > 100 µM | 32400 | > 100 µM | 66600 | > 100 µM | > 100000 | > 100 µM | 12900 | 46.7 µM
3 | Cc1cc(N2CCCCC2)nc(N(CCCNc2ccnc3cc(Cl)ccc23)Cc2ccco2)n1 | 1.8 | 4.23 µM | 1.43 | 3.87 | 2.4 | 6.25 µM | 1240 | 2.65 | 2240 | 5.18 µM | 1830 | 4.46 µM | 2010 | 12.6 µM | – | – | 2630 | 8.12 µM | 1640 | 3.4 µM
4 | C[C@@H]1CN(C(=O)c2ccc(NC(=O)c3cc(O[C@H](C)c4c(Cl)ccc(F)c4Cl)c(N)nn3)cc2)C[C@H](C)N1 | 3.1 | 13.7 µM | 11.7 | 31.1 | 5.57 | 19.6 µM | 1460 | 3.04 | 7160 | 19.7 µM | 2370 | 8.17 µM | 1780 | 12 µM | – | – | 11500 | 23.6 µM | 1550 | 3.19 µM
5 | COC(=O)NC1C(C)OC(OC2C/C=C(/C)C3C=CC4C(OC5CC(OC6CC(O)C(OC7CC(O)C(OC)C(C)O7)C(C)O6)C(O)C(C)O5)C(C)CC(C)C4C3(C)/C(O)=C3\C(=O)OC4(CC(C)C(CO)=CC4/C=C\2C)C3=O)CC1(C)[N+](=O)[O-] (configuration not stated) | 8.33 | 18.4 µM and 30.5 µM | > 50 | > 100 | 9.66 | 17.4 µM and 29.6 µM | – | 28 | – | 20.7 µM and 32.3 µM | 15700 | 50 µM and 26.9 µM | 9710 | 36.8 µM and 23.6 µM | – | 47.3 µM and 41.1 µM | 25800 | 32.5 µM and 81.2 µM | 16900 | 17.2 µM and 32.7 µM
6 | C=C1C(=O)O[C@@H]2C[C@@]3(C)CCC[C@H](C)C3=C[C@H]12 | – | 31.7 µM | – | 27.9 | – | 14.7 µM | – | 22.9 | – | 19.5 µM | – | 6.21 µM | – | 9.94 µM | – | 17.3 µM | – | 9.35 µM | – | 12.6 µM
7 | C=C1C(=O)O[C@H]2[C@H]1CC/C(COC(=O)CCCCC(=O)OC/C1=C/CC[C@@]3(C)O[C@H]3[C@H]3OC(=O)C(=C)[C@@H]3CC1)=C\CC[C@@]1(C)O[C@@H]21 | 3.52 | 25.5 µM | 5.45 | > 100 | 3.39 | 75.6 µM | 1450 | 2.9 | 2760 | 11 µM | 1810 | 5.59 µM | 429 | 4.25 µM | – | – | – | – | 1950 | 5.31 µM
8 | COc1ccc(-c2[nH]c3ccccc3c2C=C(C#N)C#N)cc1 | 0.368 | > 100 µM | 0.335 | 4.7 | – | > 100 µM | 1730 | > 100 | 1100 | > 100 µM | – | – | 352 | 10.3 µM | 625 | – | 917 | > 71.7 µM | 289 | –
9 | CC[C@H](C)[C@H]1NC(=O)[C@@H](N[C@](C)(O)[C@@H](N)CC(C)C)[C@@H](C)OC(=O)[C@H](Cc2ccc(OC)cc2)N(C)C(=O)[C@@H]2CCCN2C(=O)[C@H](CC(C)C)NC(=O)[C@@H](C)C(=O)[C@H](C(C)C)OC(=O)C[C@@H]1O | 0.011 | 0.572 µM | 2.18 | 46.5 | 0.00972 | 0.0499 µM | 12 | 0.209 | 16.1 | 0.355 µM | 34.7 | 0.177 µM | 11.3 | 0.232 µM | 241 | 2.59 µM | 39.7 | 0.557 µM | 21.5 | 0.289 µM
10 | CC1=NN(c2ccccc2)C(=O)C1N=Nc1ccc([As](=O)(O)O)c(O)c1 (configuration not stated) | – | > 100 µM | – | > 100 | – | > 100 µM | – | > 100 | – | > 100 µM | – | > 100 µM | – | 92.6 µM | – | > 100 µM | – | > 100 µM | – | > 100 µM
11 | Oc1ccc2cc(Br)ccc2c1-c1c(O)ccc2cc(Br)ccc12 | 3.76 | 15 µM | 2.97 | 9.22 | 3.82 | 13.5 µM | 1810 | 3.41 | 3900 | 15.4 µM | 2810 | 9.1 µM | 3310 | 12 µM | 2270 | 8.77 µM | 2520 | 5.86 µM | 3910 | 14 µM
12 | CCOc1cccc(/C=N/NC(=O)c2ccc(Nc3ccnc(C(F)(F)F)c3)cc2)c1O | 0.492 | 13.6 µM | 3.62 | > 63.2 | 3.13 | > 45.4 µM | 600 | 24.5 | 599 | > 72.5 µM | 359 | 20.6 µM | 332 | 8.36 µM | 1360 | > 100 µM | 2480 | > 100 µM | 1190 | > 24.6 µM
13 | C1=Cc2ccccc2Nc2ccccc21 | > 100 | > 100 µM | > 100 | > 100 | > 100 | > 100 µM | > 100000 | > 100 | > 100000 | > 100 µM | > 100000 | > 100 µM | > 100000 | > 100 µM | > 100000 | > 100 µM | > 100000 | > 100 µM | > 100000 | > 100 µM
